Results taken from patent publication US9987364B2, “Water-swellable polymers” (Ferring B.V., priority 2002, dated 2018).

What was measured:
[1] = In vitro drug release from pessaries, USP Method XXIII Apparatus 2; assay type: physicochemical; conditions: 37° C., 50 rpm
Description: The drug loaded polymer were analysed for in vitro drug release following USP Method XXIII, Apparatus 2 at 37° C., with 50 rpm paddle speed. Drug release was analysed by ultraviolet spectroscopy or high pressure liquid chromatography (HPLC) as appropriate.
Rate of drug release k values of each dissolution profile was determined by calculating the slope of graph % drug release versus square root time. All the linear relationship between % drug release and square root time has R^2 correlation value […].

[2] = cited from earlier work
[3] = from A03003 (CLP) cross-linked polymer pessaries
[4] = from A03030 (LP) linear polymer pessaries
[5] = from A03032 (LP) linear polymer pessaries

| Structure (SMILES) | Rate of drug release, k [1, 3] | Rate of drug release, k [1, 4] | Rate of drug release, k [1, 5] | Drug solubility (in water), in words [2] | Rate of drug release, k ([1]; from A03033 (LP) linear polymer pessaries) |
| --- | --- | --- | --- | --- | --- |
| CC(C)(C)NCC(O)c1cc(O)cc(O)c1 (centres unmarked) [TBS, Terbutaline sulphate] | 13.628 minute^−0.5 | 13.262 minute^−0.5 | 11.954 minute^−0.5 | Soluble |  |
| CC(=O)[C@H]1CC[C@H]2[C@@H]3CCC4=CC(=O)CC[C@]4(C)[C@H]3CC[C@]12C [PRO, Progesterone] | 2.414 minute^−0.5 |  |  | Insoluble | 1.256 minute^−0.5 |
| CC[C@H](C)[C@@H]1NC(=O)[C@H](Cc2ccc(O)cc2)NC(=O)[C@@H](N)CSSC[C@@H](C(=O)N2CCC[C@H]2C(=O)N[C@@H](CC(C)C)C(=O)NCC(N)=O)NC(=O)[C@H](CC(N)=O)NC(=O)[C@H](CCC(N)=O)NC1=O [OXY, Oxytocin] | 6.749 minute^−0.5 | 7.875 minute^−0.5 | 7.85 minute^−0.5 |  |  |
| CCCCC(C)(O)C/C=C/[C@H]1[C@H](O)CC(=O)[C@@H]1CCCCCCC(=O)OC (mixture of isomers) [MIS, misoprostol] |  |  |  | Insoluble |  |
